Laboratory results reported in patent publication US20140080869A1, “Methods for Treating HCV” (priority 2012, published 2014).
Read-outs that look alike come from different tables or passages of the source.

Legend:
[1] = system: HCV replicon with NS5A genotype 2a T24A variant; assay: Transient chimeric replicon assay, genotype 2a T24A; assay type: cell-based
Description: (§1) Transiently replicating chimeric replicons containing NS5A from genotype 2-6 wild types or replicons containing variants within NS5A were constructed in the 1b-Con1 background. These replicons also contained a firefly luciferase reporter gene. Variants were introduced by site-directed mutagenesis using the Change-IT Multiple Mutation Site Directed Mutagenesis Kit (USB). After the mutagenesis was confirmed by sequence analysis, the plasmids were linearized with ScaI restriction enzyme. The TranscriptAid T7 High Yield Transcription Kit (Fermentas) was used to transcribe the HCV subgenomic RNA from the plasmids. The RNA was transfected via electroporation into a Huh-7 derived cell line as described (see Middleton et al. and Tripathi et al., supra) except that 3×10^6 cells were electroporated with 15 μg of template RNA and the 96 well plate was seeded with 7.5×10^3 cells per well. Four hours post-transfection, the wells from one plate were harvested for luciferase measurement. […] Luciferin solution (50 μl, Promega) was added to each well, and luciferase activity was measured with a Victor II luminometer (Perkin-Elmer). The percent inhibition of HCV RNA replication was calculated for each compound concentration and the EC50 value was calculated using nonlinear regression curve fitting to the 4-parameter logistic equation and GraphPad Prism 4 software.

[2] = system: HCV replicon with NS5A genotype 2b wild type; assay: Transient chimeric replicon assay, genotype 2b WT; assay type: cell-based; details: Hepatitis C virus
Description: as §1

[3] = system: HCV replicon with NS5A genotype 2b L31V variant; assay: Transient chimeric replicon assay, genotype 2b L31V; assay type: cell-based
Description: as §1

[4] = system: HCV replicon with NS5A genotype 3a M28T variant; assay: Transient chimeric replicon assay, genotype 3a M28T; assay type: cell-based
Description: as §1

[5] = system: HCV replicon with NS5A genotype 3a Y93H variant; assay: Transient chimeric replicon assay, genotype 3a Y93H; assay type: cell-based; details: Hepatitis C virus
Description: as §1

[6] = system: HCV replicon with NS5A genotype 5a wild type; assay: Transient chimeric replicon assay, genotype 5a WT; assay type: cell-based; details: Hepatitis C virus
Description: as §1

[7] = system: HCV replicon with NS5A genotype 5a L31F variant; assay: Transient chimeric replicon assay, genotype 5a L31F; assay type: cell-based
Description: as §1

[8] = system: HCV replicon with NS5A genotype 5a L31V variant; assay: Transient chimeric replicon assay, genotype 5a L31V; assay type: cell-based; details: Hepatitis C virus
Description: as §1

[9] = system: HCV replicon with NS5A genotype 2a wild type; assay: microbe, parasite or virus in culture; assay type: cell-based; details: Hepatitis C virus, read-out: Average EC50
Description: (§2) Transiently replicating chimeric replicons containing NS5A from genotype 2-6 wild types or replicons containing variants within NS5A were constructed in the 1b-Con1 background. These replicons also contained a firefly luciferase reporter gene. Variants were introduced by site-directed mutagenesis using the Change-IT Multiple Mutation Site Directed Mutagenesis Kit (USB). After the mutagenesis was confirmed by sequence analysis, the plasmids were linearized with ScaI restriction enzyme. The TranscriptAid T7 High Yield Transcription Kit (Fermentas) was used to transcribe the HCV subgenomic RNA from the plasmids. The RNA was transfected via electroporation into a Huh-7 derived cell line as described (see Middleton et al. and Tripathi et al., supra) except that 3×10^6 cells were electroporated with 15 μg of template RNA and the 96 well plate was seeded with 7.5×10^3 cells per well. Four hours post-transfection, the wells from one plate were harvested for luciferase measurement. This plate provided a measure of the amount of translatable input RNA, and therefore transfection efficiency. To the wells of the remaining plates, a half-log dilution series of the test compound in culture medium (0.5% DMSO final concentration) was added, and plates were incubated at 37° C., 5% CO2 in a humidified incubator for 4 days. After this period, the media was removed and the plates were washed with 100 μl phosphate-buffered saline per well. Luciferin solution (50 μl, Promega) was added to each well, and luciferase activity was measured with a Victor II luminometer (Perkin-Elmer). The percent inhibition of HCV RNA replication was calculated for each compound concentration and the EC50 value was calculated using nonlinear regression curve fitting to the 4-parameter logistic equation and GraphPad Prism 4 software.

[10] = system: HCV replicon with NS5A genotype 3a wild type; assay: microbe, parasite or virus in culture; assay type: cell-based; details: Hepatitis C virus, read-out: Average EC50
Description: as §2

[11] = system: HCV replicon with NS5A genotype 6a wild type; assay: microbe, parasite or virus in culture; assay type: cell-based; details: Hepatitis C virus, read-out: Average EC50
Description: as §2

[12] = system: HCV replicon with NS5A genotype 6a T58N variant; assay: Transient chimeric replicon assay, genotype 6a T58N; assay type: cell-based
Description: as §1

[13] = system: HCV replicon with NS5A genotype 6a T58A variant; assay: Transient chimeric replicon assay, genotype 6a T58A; assay type: cell-based
Description: as §1

[14] = system: HCV genotype 1b-Con1 stable subgenomic replicon; details: read-out: Mean EC50 ± Std. Dev.
[15] = system: HCV replicon with NS5A from genotype 2a; details: read-out: Mean EC50 ± Std. Dev.
[16] = system: HCV replicon with NS5A from genotype 2b; details: read-out: Mean EC50 ± Std. Dev.
[17] = system: HCV replicon with NS5A from genotype 3a; details: read-out: Mean EC50 ± Std. Dev.
[18] = system: HCV replicon with NS5A from genotype 6a; details: read-out: Mean EC50 ± Std. Dev.
[19] = system: HCV genotype 1b-Con1 stable subgenomic replicon; assay: microbe, parasite or virus in culture; details: Hepatitis C virus, read-out: Mean EC50 ± Std. Dev.
[20] = system: HCV replicon with NS5A from genotype 2a; assay: microbe, parasite or virus in culture; details: Hepatitis C virus, read-out: Mean EC50 ± Std. Dev.
[21] = system: HCV replicon with NS5A from genotype 2b; assay: microbe, parasite or virus in culture; details: Hepatitis C virus, read-out: Mean EC50 ± Std. Dev.
[22] = system: HCV replicon with NS5A from genotype 3a; assay: microbe, parasite or virus in culture; details: Hepatitis C virus, read-out: Mean EC50 ± Std. Dev.
[23] = system: HCV replicon with NS5A from genotype 6a; assay: microbe, parasite or virus in culture; details: Hepatitis C virus, read-out: Mean EC50 ± Std. Dev.

COC(=O)N[C@H](C(=O)N1CCC[C@H]1c1nc2cc([C@H]3CC[C@H](c4ccc5[nH]c([C@@H]6CCCN6C(=O)[C@@H](NC(=O)OC)C(C)C)nc5c4)N3c3cc(F)c(N4CCC(c5ccccc5)CC4)c(F)c3)ccc2[nH]1)C(C)C [Compound 1, methyl {(2S)-1-[(2S)-2-{5-[(2R,5R)-1-[3,5-difluoro-4-(4-phenylpiperidin-1-yl)phenyl]-5-{2-[(2S)-1-{(2S)-2-[(methoxycarbonyl)amino]-3-methylbutanoyl}pyrrolidin-2-yl]-1H-benzimidazol-5-yl}pyrrolidin-2-yl]-1H-benzimidazol-2-yl}pyrrolidin-1-yl]-3-methyl-1-oxobutan-2-yl}carbamate]
EC50 [1]: 3 pM | EC50 ([1]; Hepatitis C virus): < 5 pM | EC50 [2]: 1.8 pM | EC50 [3]: 3 pM | EC50 ([3]; Hepatitis C virus): < 5 pM | EC50 [4]: 4.6 pM | EC50 ([4]; Hepatitis C virus): < 5 pM | EC50 [5]: 273 pM | EC50 [6]: 1.1 pM | EC50 [7]: 3.3 pM | EC50 ([7]; Hepatitis C virus): < 5 pM | EC50 [8]: < 5 pM | EC50 [9]: 3 pM | EC50 [10]: 2.9 pM | EC50 [11]: 2.4 pM | EC50 [12]: 3.2 pM | EC50 ([12]; Hepatitis C virus): < 5 pM | EC50 [13]: 2.5 pM | EC50 ([13]; Hepatitis C virus): < 5 pM | EC50 [14]: 5.1 ± 1.8 pM | EC50 [15]: 9 ± 4.6 pM | EC50 [16]: 6.4 ± 3.1 pM | EC50 [17]: 6.4 ± 2.8 pM | EC50 [18]: 8.7 ± 5.5 pM | EC50 [19]: < 10 pM | EC50 [20]: < 10 pM | EC50 [21]: < 10 pM | EC50 [22]: < 10 pM | EC50 [23]: < 10 pM
